Data reported in US11554182B2, “Macrocyclic complexes of alpha-emitting radionuclides and their use in targeted radiotherapy of cancer” (CORNELL UNIVERSITY, priority 2017, dated 2023).

Assay: In vivo biodistribution of ^225Ac complexes after intravenous injection
Set-up: species or system C57BL/6 mice
Method: In Vivo Biodistribution of ^225Ac Complexes of Macropa and DOTA. All experiments were approved by the Institutional Animal Care Committee (IACC) of the University of British Columbia and were performed in accordance with the Canadian Council on Animal Care Guidelines. A total of 9 female C57BL/6 mice (6-8 weeks old, 20-25 g) were used for the biodistribution study of each radiometal complex, n=3 for each time point.
Macropa (100 μL of a 1 mg/mL solution in NH4OAc) was diluted with 387 μL of NH4OAc (1 M, pH 7), and an aliquot (203 μL) of ^225Ac(NO3)3 (˜157 kBq) was then added; the pH of this solution was adjusted to 6.5-7 by the addition of 1 M NaOH (210 μL, trace metal grade). After 5 min at ambient temperature, the reaction solution was analyzed by TLC (0.4 M pH 4 sodium citrate as the eluent), which confirmed >95% radiochemical yield. The reaction was allowed to proceed overnight, and the radiochemical yield was again confirmed to be >95% the following morning. At this time, mice were anesthetized by 2% isoflurane, and approximately 100 μL (10-15 kBq) of the [^225Ac(macropa)]^+ complex were injected into the tail vein of each mouse. After injection, mice were allowed to recover and roam freely in their cages, and were euthanized by CO2 inhalation at 15 min, 1 h, or 5 h (n=3 at each time point) post-injection. Blood was collected by cardiac puncture and placed into an appropriate test tube for scintillation counting. Tissues collected included heart, liver, kidneys, lungs, small intestine, large intestine, brain, bladder, spleen, stomach, pancreas, bone, thyroid, tail, urine, and feces. Tissues were weighed and then counted with a calibrated gamma counter (Packard, Cobra II model 5002) using three energy windows: 60-120 keV (window A), 180-260 keV (window B), and 400-480 keV (window C). Counting was performed both immediately after sacrifice and after 7 days; counts were decay corrected from the time of injection and then converted to the percentage of injected dose (% ID) per gram of tissue (% ID/g). No differences were noted between the data; therefore, the biodistributions are reported using the data acquired immediately using window A.
The biodistribution studies of [^225Ac(DOTA)]^− and ^225Ac(NO3)3 were carried out as described above for [^225Ac(macropa)]^+, with the following modifications. [^225Ac(DOTA)]^− was prepared by adding ^225Ac(NO3)3 (338 μL, 1.1 MBq) to a solution of DOTA (100 μg, 20 mg/mL in H2O) in NH4OAc (467 μL, 0.15 M, pH 7). The pH of the solution was adjusted to 7 using NH4OAc (150 μL, 1 M, pH 7) and the solution was heated at 85° C. for 45 min. RCY>99% was confirmed by TLC as described above. [^225Ac(DOTA)]^− was diluted with saline to a final concentration of 0.05 MBq/100 μL, and 100 μL were injected into each mouse. ^225Ac(NO3)3 (˜58 μL, 0.4 MBq) was diluted and injected in the same manner as [^225Ac(DOTA)]^−. One mouse that was to be euthanized at the 5 h time point in the [^225Ac(DOTA)]^− study died shortly after injection. In the same manner, one mouse that was to be euthanized at the 1 h time point in the ^225Ac(NO3)3 study died.
The in vivo stability [^225Ac(macropa)]^+ was examined by comparing its biodistribution to those of ^225Ac(NO3)3 and [^225Ac(DOTA)]^−. C57BL/6 mice were injected via tail vein with 10-50 kBq of each radiometal complex and were sacrificed after 15 min, 1 h, or 5 h. The amount of ^225Ac retained in each organ was quantified by gamma counting and reported as the percent of injected dose per gram of tissue (% ID/g). The results of these studies are compiled in Tables 1-3. Inadequate stability of an ^225Ac complex leading to the loss of radioisotope in vivo is manifested by the accumulation of ^225Ac in the liver, spleen, and bone of mice.^[11,12,32] […] The biodistribution profile of [^225Ac(macropa)]^+ (FIG. 3B) differs markedly from that of ^225Ac(NO3)3. […]

[1] = 15 min after i.v. injection, energy window A (60-120 keV)
[2] = 15 min after i.v. injection, energy window B (180-260 keV)
[3] = 15 min after i.v. injection, energy window C (400-480 keV)
[4] = 1 h after i.v. injection, energy window A (60-120 keV)
[5] = 1 h after i.v. injection, energy window B (180-260 keV)
[6] = 1 h after i.v. injection, energy window C (400-480 keV)
[7] = 5 h after i.v. injection, energy window A (60-120 keV)
[8] = 5 h after i.v. injection, energy window B (180-260 keV)

## O=C([O-])CN1CCN(CC(=O)[O-])CCN(CC(=O)[O-])CCN(CC(=O)[O-])CC1.[225Ac+3] [[^225Ac(DOTA)]^−]
[1]
  % ID/g in bladder: 48.2703 % ID/g
  % ID/g in blood: 5.2881 % ID/g
  % ID/g in bone (femur + joint): 2.6298 % ID/g
  % ID/g in brain: 0.2655 % ID/g
  % ID/g in feces: 6.2730 % ID/g
  % ID/g in heart: 2.3335 % ID/g
  % ID/g in kidneys: 27.6566 % ID/g
  % ID/g in large intestines: 2.3348 % ID/g
  % ID/g in liver: 2.2520 % ID/g
  % ID/g in lungs: 5.7556 % ID/g
  % ID/g in pancreas: 1.5090 % ID/g
  % ID/g in small intestines: 2.6370 % ID/g
  % ID/g in spleen: 2.5905 % ID/g
  % ID/g in stomach: 2.7440 % ID/g
  % ID/g in tail: 8.8606 % ID/g
  % ID/g in thyroids: −5.7725 % ID/g
  % ID/g in urine: 1467.9186 % ID/g
[2]
  % ID/g in bladder: 54.4696 % ID/g
  % ID/g in blood: 5.6357 % ID/g
  % ID/g in bone (femur + joint): 3.0357 % ID/g
  % ID/g in brain: 0.2735 % ID/g
  % ID/g in feces: 1.0222 % ID/g
  % ID/g in heart: 2.7276 % ID/g
  % ID/g in kidneys: 28.0858 % ID/g
  % ID/g in large intestines: 2.5365 % ID/g
  % ID/g in liver: 2.1817 % ID/g
  % ID/g in lungs: 6.0147 % ID/g
  % ID/g in pancreas: 1.4929 % ID/g
  % ID/g in small intestines: 2.5009 % ID/g
  % ID/g in spleen: 2.9076 % ID/g
  % ID/g in stomach: 2.7311 % ID/g
  % ID/g in tail: 9.4746 % ID/g
  % ID/g in thyroids: 1.6601 % ID/g
  % ID/g in urine: 1635.4394 % ID/g
[3]
  % ID/g in bladder: 76.0987 % ID/g
  % ID/g in blood: 7.2941 % ID/g
  % ID/g in bone (femur + joint): 4.4224 % ID/g
  % ID/g in brain: 0.1588 % ID/g
  % ID/g in feces: 1.5693 % ID/g
  % ID/g in heart: 2.5579 % ID/g
  % ID/g in kidneys: 40.4489 % ID/g
  % ID/g in large intestines: 3.8419 % ID/g
  % ID/g in liver: 2.9046 % ID/g
  % ID/g in lungs: 7.3872 % ID/g
  % ID/g in pancreas: 1.0290 % ID/g
  % ID/g in small intestines: 3.8916 % ID/g
  % ID/g in spleen: 1.5598 % ID/g
  % ID/g in stomach: 3.2425 % ID/g
  % ID/g in tail: 13.4731 % ID/g
  % ID/g in thyroids: −109.5394 % ID/g
  % ID/g in urine: 2691.0615 % ID/g
[4]
  % ID/g in bladder: 4.7351 % ID/g
  % ID/g in blood: 0.1144 % ID/g
  % ID/g in bone (femur + joint): 0.4487 % ID/g
  % ID/g in brain: 0.0224 % ID/g
  % ID/g in feces: 0.2035 % ID/g
  % ID/g in heart: 0.1012 % ID/g
  % ID/g in kidneys: 1.4020 % ID/g
  % ID/g in large intestines: 0.1229 % ID/g
  % ID/g in liver: 0.2715 % ID/g
  % ID/g in lungs: 0.1555 % ID/g
  % ID/g in pancreas: 0.0743 % ID/g
  % ID/g in small intestines: 1.7207 % ID/g
  % ID/g in spleen: 0.0938 % ID/g
  % ID/g in stomach: 0.1367 % ID/g
  % ID/g in tail: 0.8091 % ID/g
  % ID/g in thyroids: 2.3564 % ID/g
  % ID/g in urine: 158.6102 % ID/g
[5]
  % ID/g in bladder: 4.7141 % ID/g
  % ID/g in blood: 0.1127 % ID/g
  % ID/g in bone (femur + joint): 0.4126 % ID/g
  % ID/g in brain: 0.0248 % ID/g
  % ID/g in feces: 0.2349 % ID/g
  % ID/g in heart: 0.1378 % ID/g
  % ID/g in kidneys: 1.2560 % ID/g
  % ID/g in large intestines: 0.0813 % ID/g
  % ID/g in liver: 0.2672 % ID/g
  % ID/g in lungs: 0.1946 % ID/g
  % ID/g in pancreas: 0.0746 % ID/g
  % ID/g in small intestines: 1.8809 % ID/g
  % ID/g in spleen: 0.0825 % ID/g
  % ID/g in stomach: 0.1379 % ID/g
  % ID/g in tail: 0.8973 % ID/g
  % ID/g in thyroids: 2.6514 % ID/g
  % ID/g in urine: 159.1628 % ID/g
[6]
  % ID/g in bladder: 6.9149 % ID/g
  % ID/g in blood: 0.1102 % ID/g
  % ID/g in bone (femur + joint): 0.5654 % ID/g
  % ID/g in brain: 0.0380 % ID/g
  % ID/g in feces: 0.4091 % ID/g
  % ID/g in heart: 0.2857 % ID/g
  % ID/g in kidneys: 1.4787 % ID/g
  % ID/g in large intestines: 0.1381 % ID/g
  % ID/g in liver: 0.2841 % ID/g
  % ID/g in lungs: 0.2551 % ID/g
  % ID/g in pancreas: 0.1730 % ID/g
  % ID/g in small intestines: 2.0201 % ID/g
  % ID/g in spleen: 0.2228 % ID/g
  % ID/g in stomach: 0.1720 % ID/g
  % ID/g in tail: 1.0280 % ID/g
  % ID/g in thyroids: 3.5247 % ID/g
  % ID/g in urine: 177.6788 % ID/g
[7]
  % ID/g in bladder: 0.3551 % ID/g
  % ID/g in blood: 0.0140 % ID/g
  % ID/g in bone (femur + joint): 0.2063 % ID/g
  % ID/g in brain: 0.0213 % ID/g
  % ID/g in feces: 5.5318 % ID/g
  % ID/g in heart: 0.0664 % ID/g
  % ID/g in kidneys: 0.6172 % ID/g
  % ID/g in large intestines: 0.2026 % ID/g
  % ID/g in liver: 0.1010 % ID/g
  % ID/g in lungs: 0.0390 % ID/g
  % ID/g in pancreas: 0.0677 % ID/g
  % ID/g in small intestines: 0.0967 % ID/g
  % ID/g in spleen: 0.1380 % ID/g
  % ID/g in stomach: 0.0852 % ID/g
  % ID/g in tail: 0.3057 % ID/g
  % ID/g in thyroids: 3.6425 % ID/g
  % ID/g in urine: 1.1612 % ID/g
[8]
  % ID/g in bladder: 0.7521 % ID/g
  % ID/g in blood: 0.0292 % ID/g
  % ID/g in bone (femur + joint): 0.1478 % ID/g
  % ID/g in brain: 0.0513 % ID/g
  % ID/g in feces: 3.3534 % ID/g
  % ID/g in heart: 0.0879 % ID/g
  % ID/g in kidneys: 0.6718 % ID/g
  % ID/g in large intestines: 0.2527 % ID/g
  % ID/g in liver: 0.2712 % ID/g
  % ID/g in lungs: 0.1289 % ID/g
  % ID/g in pancreas: 0.1266 % ID/g
  % ID/g in small intestines: 0.2065 % ID/g
  % ID/g in spleen: 0.0834 % ID/g
  % ID/g in stomach: 0.1789 % ID/g
  % ID/g in tail: 0.1634 % ID/g
  % ID/g in thyroids: 16.2357 % ID/g
  % ID/g in urine: 3.6967 % ID/g
